Results: paper PMC5271583 (Bioorganic & medicinal chemistry letters, 2016)
Like-named read-outs stand apart in the source and are kept apart here.

How the values were obtained:
Format in all cases: cell-based, rodent
[1] = target: CRAC channel (Rattus norvegicus, UniProt Q5M848); test: Inhibition of Ca2+ influx in thapsigargin-activated RBL-2H3 mast cells; settings: for inhibition at 100 µM: RBL-2H3, read-out: Inhibition of Ca2+ influx at 100 µM (no IC50)
[2] = system: TNFα; test: TNFα protein secretion by thapsigargin-activated RBL cells, ELISA; settings: 4 h, read-out: IC50 (µM) TNFα
[3] = system: RBL-2H3 cells; test: β-hexosaminidase release; settings: highest concentration tested
[4] = system: NFAT-c1; settings: 10 µM and higher concentrations

Sequence of CRAC channel (Q5M848 whole entry): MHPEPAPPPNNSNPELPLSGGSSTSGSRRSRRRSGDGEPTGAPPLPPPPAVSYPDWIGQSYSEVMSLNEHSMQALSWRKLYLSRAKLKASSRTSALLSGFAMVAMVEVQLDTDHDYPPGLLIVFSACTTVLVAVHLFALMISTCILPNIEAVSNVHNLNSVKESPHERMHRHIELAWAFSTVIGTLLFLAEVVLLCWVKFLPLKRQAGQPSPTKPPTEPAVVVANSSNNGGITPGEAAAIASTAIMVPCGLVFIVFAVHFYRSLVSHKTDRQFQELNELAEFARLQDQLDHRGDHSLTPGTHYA

O=C(Nc1nn(Cc2ccc(Cl)cc2Cl)c2ccccc12)c1c(F)cccc1F [Compound 9a]
inhibition at 100 µM [1]: < 50%

Cc1nnsc1C(=O)Nc1nn(Cc2ccc(Cl)cc2Cl)c2ccccc12 [Compound 9e]
IC50 [1]: > 30 µM
inhibition at 30 µM ([1]; RBL-2H3, read-out: Inhibition of Ca2+ influx at 30 µM): ~50%

O=C(Nc1nn(Cc2ccc(Cl)cc2Cl)c2ccccc12)c1ccc(F)cc1F [Compound 9f]
inhibition at 100 µM [1]: < 50%

O=C(Nc1ccccc1F)c1nn(Cc2ccc(Cl)cc2Cl)c2ccccc12 [Compound 12c]
IC50 [1]: > 30 µM

O=C(Nc1ccc(F)cc1F)c1nn(Cc2ccc(Cl)cc2Cl)c2ccccc12 [Compound 12e]
IC50 [2]: 0.64 µM

O=C(Nc1cnns1)c1nn(Cc2ccc(Cl)cc2Cl)c2ccccc12 [Compound 12h]
inhibition at 100 µM [1]: < 50%

N-[1-[(2,4-dichlorophenyl)methyl]indazol-3-yl]-3-fluoro-pyridine-4-carboxamide [Compound 12d]
Inhibition of β-hex release (in words) [3]: nearly complete inhibition of β-hex release
IC50 ([1]; read-out: IC50 (µM) Ca2+ influx, Table 3, SD <20%): 0.67 µM
IC50 ([1]; read-out: IC50 (µM), inhibition of Ca2+ influx, indazole derivatives, Table 1, RBL-2H3 cells activated with Tg 1 µM, SD <35%): 0.67 µM
Level of nuclear NFAT (in words) [4]: restore the levels of nuclear NFAT to that of resting MCs
